The record followed here is patent US10987317B2, “Inhibition of glutaminase C” (Cornell University, priority 2009, dated 2021).

For assay [1], the system named is NIH 3T3 cells expressing H-Ras(G12V). In words: H-Ras(G12V)-induced transformation (focus formation, growth in low serum). The note with it: focus formation in NIH 3T3 cells or growth in low serum. It counts as cell-based. The text has this:
FIGS. 5A-C illustrate comparative abilities of 968 and other benzo[a]phenanthrldinones to inhibit the transforming activity of oncogenic Dbl and H-Ras. […] Histograms show the relative levels of Dbl-induced focus formation for the different treatments, compared to Dbl-induced focus formation measured in the presence of DMSO (i.e. solvent control). Data represent the average of 3 experiments (mean±s.d.). […] Histograms show the relative levels of Ras(G12V)-induced focus formation measured for the different treatments, compared to Ras(G12V)-induced focus formation measured in the presence of DMSO (solvent control). Data represent the average of 3 experiments (mean±s.d.). FIG. 5C NIH 3T3 cells stably expressing H-Ras(G12V) that are cultured in DMEM supplemented with 1% calf serum, with the indicated amounts of 968. After 6 days, cells are trypsinized and counted. 100% represents the number of cells counted in the absence of 968, i.e. 26×10^4 cells. Data represent the average of 3 experiments (mean±s.d.).

Assay [2] relates to NIH 3T3 cells stably expressing Cdc42(F28L), Rac(F28L), RhoC(F30L). In words: Transforming activity of constitutively active Rho GTPase mutants. It is filed as cell-based. Particulars: 10 μM. Here is the method: FIGS. 2A-G illustrate effects of 968 on the transforming activity of constitutively active Rho GTPases and human breast cancer cells. […] Cells are scored after 14 days and plotted as the percentage of the total number of colonies greater than […] in diameter. Data represent the average of 3 experiments (±s.d.). […] Data represent the average of 3 experiments (±s.d.). […] Data represent the average of 3 experiments (±s.d.). […] After 24 hours at 37° C. the migratory cells are fixed, stained with GIEMSA, and counted. Data represent the average of 3 experiments (±s.d.). […] Data represent the average of 3 experiments (±s.d.). […] Data represent the average of 3 experiments (±s.d.). […] Data represent the average of 3 experiments (±s.d.).

For assay [3], the system named is GA activity in MDA-MB231 cells. In words: GA activity in mitochondrial fractions. It counts as cell-based, human. Particulars: 10 μM, phosphate-independent. On the procedure:
100%=620 moles of glutamine hydrolyzed per minute per mole of enzyme. Data represent the average of 3 experiments (±s.d.). […] Following precipitation of the beads and re-suspension, the samples are analyzed by Western blotting with anti-V5 antibody. […] Data represent the average of 3 experiments (±s.d.). […] Data represent the average of 3 experiments (±s.d.). […] Data represent the average of 3 experiments (±s.d.). FIG. 3E NIH 3T3 cells transiently expressing Dbl are assayed for focus formation in the presence of 10 μM 968 alone or together with […] dimethyl α-ketoglutarate. […] 100%=680 nM glutamine hydrolyzed per minute per 10^5 cells. Data are the average of 3 experiments (=s.d.). […] 100%=750 nM glutamine hydrolyzed per minute per 10^5 cells. Data represent the average of 3 experiments (±s.d.).
FIGS. 11A-E illustrate the effects of different treatments on GA activity. […] The addition of Pi stimulated the GA activity in control 3T3 cells, Dbl-expressing cells, and Cdc42(F28L)-expressing cells by ˜6-fold, 2-fold, and 3-fold, respectively. 100% represents the Pi-stimulated activity measured for Dbl-transformed cells that are not treated with 968. […] The data are plotted as the percentage of GA activity measured for untreated SKBR3 cells and represent the average of 2 experiments. […] 100% represents the P1-stimulated activity measured for untreateDbl-transformed cells. […]

For the molecule `CN(C)c1ccc(C2Nc3ccc4ccccc4c3C3=C2C(=O)CC(C)(C)C3)cc1Br` (stereo not drawn) [Compound 968, 5-[3-bromo-4-(dimethylamino)phenyl]-2,2-dimethyl-2,3,5,6-tetrahydrobenzo[a]], the “potency on Dbl-induced transformation compared to oncogenic H-Ras” value in assay [1] was “more potent inhibitor of Dbl-induced transformation”. Also, the “colony formation in soft-agar” value in assay [2] is listed as “blocking”. For the same molecule, the “growth under low serum conditions” value in assay [2] (1% calf serum) is given as “blocking”. The “growth to high density” value in assay [2] (10% calf serum, 6 days) is “blocking”. Also, the invasive activity result in assay [2] (Matri-gel, 24 hours) was “inhibiting”. Besides, the “basal GA activity” value in assay [3] is “sensitive”.
